{"source": "patent US7943660B2", "about": "“Inhibitors of the LFA-1/ICAM-1 interaction and uses thereof” (Dominion Pharmakine S.L., priority 2005, dated 2011)", "key": {"[1]": {"test_system": "Co26 murine colon carcinoma (Co26-CC) cell adhesion to HSE cells", "test": "Co26 colon carcinoma cell adhesion to HSE cells", "format": "cell-based", "settings": "FIG. 6B", "protocol": "(§1) Time-dependent adhesion assays was carried out on a quantitative basis according to previous validated bioassays (Vidal-Vanaclocha et al., Cancer Research, 1994, 54(10):2667-72). For tumor cell pre-labelling, they were allowed to accumulate the non-fluorescent sterase substrate BCECF-AM and to hydrolyze it to its fluorescent product BCECF which becomes trapped inside living cells. To do this, 50 μg of BCECF-AM were diluted in dry DMSO (5 μl) and DME medium until […] (40 μg/ml).\n(§2) Tumor cells (5×10^6) were incubated in BCECF-AM solution at 37° C. for 30 min. After gently washing, tumor cells were resuspended in fresh medium (DMEM without phenol red) at a concentration of 2×10^6 cells/ml.\n(§3) Twenty-four hours post-plating, primary cultured hepatic sinusoidal endothelial (HSE) cells were also used for adhesion assay. To determine the basal autofluorescence per well, plates were read on a fluorometric microplate reader (Multiskan Ascent, Thermo Labsystems) using 485/22 nm excitation and the 530/25 nm emission filter. Then, 2×10^5 labeled tumor cells were added to each well of HSE cells and to collagen pre-coated control wells.\n(§4) However, in order to determine the exact number of cells in each well, co-culture plates were read for a second time. Then, plates were incubated at 37° C. […]"}, "[2]": {"test_system": "B16 melanoma (B16M) cell adhesion to VEGF-induced HSE cells mediated by LFA-1", "test": "B16M cell adhesion to VEGF-treated hepatic sinusoidal endothelial (HSE) cells in vitro", "format": "cell-based, murine", "settings": "HSE pre-incubated with 10 μg/ml HC0303 30 min prior to 10 ng/ml rmVEGF for 8 hours; FIG. 5; P<0.001", "protocol": "as §1, §2, §3, §4"}, "Co26-CC cells": {"test_system": "Co26-CC cells", "test": "Hepatic metastasis assay (intrasplenic injection of Co26-CC cells)", "format": "in vivo, BALB/c mice", "settings": "Co26-CC cells preincubated with 10 μg/ml HC0303 for 30 min before intrasplenic injection; day 14; vs untreated cells; FIG. 9; P<0.01", "protocol": "Hepatic metastases were produced by the intrasplenic injection into anesthetized male BALB/c mice (6- to 8-weeks old) of 1.5×10^5 viable Co26-CC cells suspended in 0.1 ml Hanks' balanced salt solution. Some cells were incubated with 10 μg/ml compound HC0303 for 30 min prior to their inoculation. Mice were killed by cervical dislocation on the 14th day after the injection of cancer cells. An integrated image analysis system (Olympus Microimage 4.0 capture kit) connected to an Olympus BX51TF microscope was used to quantify the number of foci and their average diameters in serially-cut and hematoxylin/eosin stained hepatic tissue sections.\nDensitometric analysis of digitalized microscopic images was used to distinguish metastatic tissue from normal hepatic tissue. Previously described stereological procedures were employed (cf. Vidal-Vanaclocha et al., Cancer Research, 1994, 54(10):2667-72) and the following parameters were calculated: the liver metastasis density, which was the number of metastases per 100 mm^3 of liver (based on the mean number of foci detected in fifteen 10×10 mm^2 sections per liver) and the liver metastasis volume (mean percentage of liver volume occupied by metastases).\nIn vitro effect of compound HC0303 on in vivo metastatic behavior of cancer cells was tested in Co26-CC cells. […] In addition, the percentage of liver volume occupied by metastases was assessed. […]"}}}
{"smiles": "CC[C@H](C)C(OCc1ccccc1)[C@@H]1[C@H]([N+](=O)[O-])[C@H](c2ccccc2)N[C@]1(C)C(=O)NCCC(=O)O", "note": "(stereo partly drawn) [HC0303, 3-[(2S,3R,4S,5S)-3-[(2S)-1-(Benzyloxy)-2-methylbutyl]-2-methyl-4-nitro-5-phenylpyrrolidine-2-carboxamido]propanoic acid]", "values": [{"measurement": "melting point", "result": "104 to 105", "unit": "°C"}, {"measurement": "PMA-induced cancer cell adhesion to HSE cells", "setting": "[1]; 100 ng/ml PMA 30 min, then HC0303 20 μg/5×10^5 cells for 30 min, P<0.01", "result": "significantly decreased"}, {"measurement": "adhesion to untreated HSE cells (no PMA)", "setting": "[1]; HC0303 20 μg/5×10^5 cells for 30 min", "result": "did not affect"}, {"measurement": "B16M cell adhesion increase produced in response of VEGF", "setting": "[2]", "result": "abrogated"}, {"measurement": "liver metastasis density (number of foci/100 mm^3)", "setting": "Co26-CC cells", "result": "almost abrogated"}, {"measurement": "liver metastasis volume (percentage of liver volume occupied by metastases)", "setting": "Co26-CC cells", "result": "almost abrogated"}]}
